Test results taken from article PMC6218639, “The calcium sensitizer drug MCI-154 binds the structural C-terminal domain of cardiac troponin C” (Biochemistry and Biophysics Reports, 2018).

Target: T1, cardiac troponin C (cTnC) (Homo sapiens, UniProt P63316, C35S/C84S)
T1 construct: gene TNNC1; cTnC residues 1–161
Test: 2D 1H, […]-HSQC NMR titration (KD […]), confirmed by ITC
Format: binding

Kd: 500 ± 100 µM
Structure (SMILES): O=C1CCC(c2ccc(Nc3ccncc3)cc2)=NN1 [MCI-154, 6-(4-(pyridin-4-ylamino)phenyl)-4,5-dihydropyridazin-3(2H)-one]
